Patent US20220204498A1, “PYRIDO-PYRIMIDINYL COMPOUNDS AND METHODS OF USE” (Genentech, Inc., priority 2019, published 2022)
Counter-ions that a name gives are not always drawn.

biological target: T1, IRE1α (Homo sapiens, UniProt O75460, D688N); test: IRE1α TR-FRET competition binding assay (IRE1α HTRF); settings: His-tagged IRE1α kinase dead construct (KR, D688N) 0.25 nM; Alexa fluor 647-labeled ATP competitive probe 2 nM; one hour at room temperature; read-out: IRE1α (alpha) HTRF (IC50)
T1 construct: containing the kinase and RNase domains (KR, AA G547-1L977, D688N); made in house; host or cells: Sf9 insect cells
T1 sequence (O75460 547-977 D688N): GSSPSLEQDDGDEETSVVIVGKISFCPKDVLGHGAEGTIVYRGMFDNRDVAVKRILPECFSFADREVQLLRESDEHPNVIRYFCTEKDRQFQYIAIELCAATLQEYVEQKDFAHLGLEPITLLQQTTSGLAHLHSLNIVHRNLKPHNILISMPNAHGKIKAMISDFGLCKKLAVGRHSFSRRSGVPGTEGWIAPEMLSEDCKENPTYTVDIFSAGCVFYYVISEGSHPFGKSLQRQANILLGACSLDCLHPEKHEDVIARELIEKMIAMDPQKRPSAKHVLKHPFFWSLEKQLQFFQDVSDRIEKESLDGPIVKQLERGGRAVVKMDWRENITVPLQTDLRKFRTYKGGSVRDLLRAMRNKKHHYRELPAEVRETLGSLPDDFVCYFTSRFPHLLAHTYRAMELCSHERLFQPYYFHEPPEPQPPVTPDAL
Protocol: Example 59. IRE1α TR-FRET Competition Binding Assay
To determine the affinity of compound binding to the kinase domain of IRE1α, a time-resolved fluorescence resonance energy transfer (TR-FRET) competition assay was used.
A His-tagged IRE1α kinase dead construct containing the kinase and RNase domains (KR, AA G547-1L977, D688N) was expressed in Sf9 insect cells. The purified protein (final concentration 0.25 nM) was pre-incubated with anti-His Europium labeled antibody (Life Technologies PV5596, final concentration 2 nM) for one hour at 4° C. in TR-FRET Assay Buffer (50 mM HEPES, pH 7.5, 10 mM MgCl2, 0.083 mM Brij 35, 1 mM DTT, and 0.1% bovine gamma globulin) prior to addition to test compounds. An Alexa fluor 647-labeled probe based on an ATP competitive inhibitor was added to a final concentration of 2 nM. Reactions were carried out for one hour at room temperature in a final volume of 20 μL in 384 well white ProxiPlates (Perkin Elmer 6008289). Binding of the probe to the IRE1α protein was detected in an Envision instrument (PerkinElmer) equipped with a TRF laser option and a LANCE/Delfia Dual/Bias D400/D630 mirror (Ex 347 nm, 1st Em 665 nm, 2nd Em 615 nm).

| IC50 [nM] | SMILES |
| --- | --- |
| 0.27 | Cc1cc(-c2ccc(NS(=O)(=O)Cc3ccc(F)cc3)c(F)c2)nc2cnc(N[C@@H]3CNC[C@@H](F)C3)nc12 [Compound 121, N-(2-Fluoro-4-(2-(((3S,5S)-5-fluoropiperidin-3-yl)amino)-8-methylpyrido[3,2-d]pyrimidin-6-yl)phenyl)-1-(4-fluorophenyl)methanesulfonamide formate] |
| 0.15 | CN(C)[C@H]1CC[C@H](Nc2ncc3nc(-c4ccc(NS(=O)(=O)Cc5ccc(F)cc5)c(F)c4)cc(C(F)F)c3n2)CC1 [Compound 131, N-1,4-trans-[4-[8-(Difluoromethyl)-2-[[4-(dimethylamino)cyclohexyl]amino]pyrido[3,2-d]pyrimidin-6-yl]-2-fluoro-phenyl]-1-(4-fluorophenyl)methanesulfonamide] |
| 18 | Cc1nc(NS(=O)(=O)CCC(F)(F)F)ccc1-c1cc(C)c2nc(N[C@H]3CC[C@H](N(C)C)CC3)ncc2n1 [Compound 126, N-(5-(2-(((1,4-trans)-4-(Dimethylamino)cyclohexyl)amino)-8-methylpyrido[3,2-d]pyrimidin-6-yl)-6-methylpyridin-2-yl)-3,3,3-trifluoropropane-1-sulfonamide] |
| 0.2 | Cc1cc(-c2ccc(NS(=O)(=O)CCC(F)(F)F)c(F)c2)nc2cnc(N[C@H]3CC[C@H](N(C)C)CC3)nc12 [Compound 107, N-(4-(2-(((1r,4r)-4-(Dimethylamino)cyclohexyl)amino)-8-methylpyrido[3,2-d]pyrimidin-6-yl)-2-fluorophenyl)-3,3,3-trifluoropropane-1-sulfonamide] |
| 0.08 | CCc1cc(-c2ccc(NS(=O)(=O)CCC(F)(F)F)c(F)c2)nc2cnc(N[C@H]3CC[C@H](N(C)C)CC3)nc12 [Compound 114, N-(4-(2-(((1,4-trans)-4-(Dimethylamino)cyclohexyl)amino)-8-ethylpyrido[3,2-d]pyrimidin-6-yl)-2-fluorophenyl)-3,3,3-trifluoropropane-1-sulfonamide] |
| 0.33 | CCc1cc(-c2ccc(NS(=O)(=O)c3ccccc3Cl)nc2C)nc2cnc(N[C@H]3CC[C@H](N(C)C)CC3)nc12 [Compound 134, 2-Chloro-N-(5-(2-(((1,4-trans)-4-(dimethylamino)cyclohexyl)amino)-8-ethylpyrido[3,2-d]pyrimidin-6-yl)-6-methylpyridin-2-yl)benzenesulfonamide] |
| 0.33 | Cc1nc(NS(=O)(=O)c2ccccc2C#N)ccc1-c1cc(C)c2nc(N[C@H]3CC[C@H](N(C)C)CC3)ncc2n1 [Compound 159, 2-Cyano-N-(5-(2-(((1,4-trans)-4-(dimethylamino)cyclohexyl)amino)-8-methylpyrido[3,2-d]pyrimidin-6-yl)-6-methylpyridin-2-yl)benzenesulfonamide] |
| 0.25 | Cc1cc(-c2ccc(NS(=O)(=O)CCC(F)(F)F)c(Cl)c2)nc2cnc(N[C@H]3CC[C@H](N(C)C)CC3)nc12 [Compound 120, N-(2-Chloro-4-(2-(((1,4-trans)-4-(dimethylamino)cyclohexyl)amino)-8-methylpyrido[3,2-d]pyrimidin-6-yl)phenyl)-3,3,3-trifluoropropane-1-sulfonamide] |
| 5.2 | Cc1nc(NS(=O)(=O)Cc2ccc(F)cc2)ccc1-c1cc(C(F)F)c2nc(N[C@H]3CC[C@H](N(C)C)CC3)ncc2n1 [Compound 133, N-(5-(8-(Difluoromethyl)-2-(((1,4-trans)-4-(dimethylamino)cyclohexyl)amino)pyrido[3,2-d]pyrimidin-6-yl)-6-methylpyridin-2-yl)-1-(4-fluorophenyl)methanesulfonamide] |
| 0.15 | Cc1cc(-c2ccc(NS(=O)(=O)c3ccccc3C#N)c(F)c2)nc2cnc(N[C@H]3CC[C@H](N(C)C)CC3)nc12 [Compound 150, 2-Cyano-N-[(1,4-trans)-4-[2-[[4-(dimethylamino)cyclohexyl]amino]-8-methyl-pyrido[3,2-d]pyrimidin-6-yl]-2-fluoro-phenyl]benzenesulfonamide] |
